Measurements: patent US20220362386A1, “LIQUID COMPOSITIONS COMPRISING A LEVODOPA AMINO ACID CONJUGATE AND USES THEREOF” (NeuroDerm, Ltd., priority 2019, published 2022)
Where a name gives a salt, the structure may show the parent alone. Non-standard residues stand in square brackets, D forms with d. Residues, ends and D or L forms follow the SMILES beside them. Dopa = N[C@@H](Cc1ccc(O)c(O)c1)C(=O)O

Tests used:
[1] = Stability observation of the solubility solutions at 25° C. (visual inspection for precipitants); type: physicochemical; details: 0.75% CD solution
Description: The volume of the solution in the bottle was adjusted to 5 ml, either by adding solvent, or be removing any residual solution, after which the bottle was tightly closed and left at 25° C. for stability observation. […] It is further noted that throughout this document, unless mentioned otherwise, the stability was measured using the manual visual inspection Bosch apparatus MIH DX, at a magnification of ×1.75.

[2] = LD-Arg, LD-Lys and LD-Tyr formulations of Experimental Example 12, physical stability (Tables 35-41); type: physicochemical; details: for Physical Stability: room temperature overnight
Description: Formulations as described in the tables below were prepared by adding a CD solution and dissolving all ingredients together. The CD for the LD-Arg formulation was prepared as follows: WFI was added to a bottle, after which Tween® 80 and sodium bisulfite were added, stirred to dissolution, and heated to 60° C. CD was added, stirred for 1-2 minutes to achieve homogenization. Finally, L-Arginine was added, the bottle was flushed with nitrogen, tightly closed and stirred 15 min. Dissolution was verified and the preparation was allowed to cool to ambient temperature. The pH was measured, and the preparation was transferred to a measurement bottle, where the volume was completed to the predefined final volume by adding WFI. The preparation was then filtered through sterile 0.22 μm nylon filter, transferred to 20 ml vials, after which nitrogen was purged into the headspace and the vials were frozen at −20° C. until use.
The CD solution for the LD-Tyr and LD-Lys formulations was prepared as follows: WFI was added to a bottle. Tween® 80 and sodium bisulfite were added, stirred to dissolution and heated to 60° C. CD was added, and stirred for 1-2 minutes to achieve homogenization. NaOH was added, after which the bottle was washed with nitrogen, closed tightly and stirred for 15 minutes. Dissolution was verified and the preparation was allowed to cool to ambient temperature. The pH was measured, and preparation was transferred to a measurement bottle, in which the volume was completed to final predefined volume by adding WFI. The preparation was then filtered through a sterile 0.22 μm nylon filter, transferred to 20 ml vials, after which nitrogen was purged into headspace and the vials were frozen at −20° C. until use.

[3] = 0 weeks
Description: (§1) It is noted that the recovery % compared the amount of any given material as measured at t=28 h (or any other presented value) compared to the amount of that material, at measured at t=0.

[4] = Analytical stability of LD-Tyr/CD formulations by HPLC (Tables 42-45c); details: for % retention, t = 1 week / Analytical stability result (HPLC), t = 1 week / % retention, t = 2 weeks / Analytical stability result (HPLC), t = 2 weeks: NB 144-4 formulation; for Analytical stability result (HPLC), t = 1 week / Analytical stability result (HPLC), t = 2 weeks: in mg/mL (unit assumed)
Description: as §1

Caco-2 cells [5] = test: in vitro; details: Caco-2
Caco-2 cells [6] = test: In-vitro absorption, Caco-2 A-B permeability; type: in vitro ADME, human; details: Caco-2 A-B; both with and without verapamil
Description: Conditions may be adjusted when necessary.
D denotes donor and R is receiver. […] V is the volume of the donor or receiver.
The test was performed with and without verapamil, which is a permeation inhibitor, and the results are presented in Tables 22 (without verapamil) and 34 (with verapamil).

[7] = t = 12 days, LD-Tyr 37.0%, CD 0.75%, L-Arginine 6.00, NaOH 0, TRIS 13, pH 8.14
[8] = t = 14 days, LD-Tyr 44.0%, CD 0.75%, L-Arginine 25.70, NaOH 0, TRIS 0, pH 8.34
[9] = t = 26 days, LD-Tyr 37.0%, CD 0.75%, L-Arginine 6.00, NaOH 0, TRIS 12.124, pH 8.12
[10] = t = 26 days, LD-Tyr 44.0%, CD 0.75%, L-Arginine 6.76, NaOH 0, TRIS 13.726, pH 8.08
[11] = NB 144-32 (F1), 37% LD-Tyr/0.5% CD
[12] = NB 144-34 (F2), 44% LD-Tyr/0.5% CD
[13] = NB 144-39 (F3), 30% LD-Tyr/0.5% CD

Q: Which Stability ([1]; pH 6.5, 250 mg/ml salt) does the source give for `NCCCC[C@H](NC(=O)[C@@H](N)Cc1ccc(O)c(O)c1)C(=O)O` [LD-Lys TFA salt, Levodopa Lysine TFA Salt] (H-[Dopa]-Lys-OH) here?
A: Precipitated* (precipitated within 12 hours)

Q: What about the Stability ([1]; pH 7.4, 250 mg/ml salt) of the same compound?
A: Precipitated* (precipitated within 12 hours)

Q: What does the source list for `N[C@@H](Cc1ccc(O)c(O)c1)C(=O)N[C@@H](Cc1ccc(O)cc1)C(=O)O` [LD-Tyr TFA salt, Levodopa Tyrosine TFA Salt] (H-[Dopa]-Tyr-OH)?
A: Physical Stability ([2]; LD-Tyr 20%, Arg 0%, TRIS 8.8%, pH 7.94, molar ratio 1:1.20): Precipitated; Physical Stability ([2]; LD-Tyr 30%, Arg 4.5%, TRIS 9.72%, pH 8.00, molar ratio 1:1.20): Stable; Physical Stability ([2]; LD-Tyr 37%, Arg 5.8%, TRIS 11.7%, pH 8.12, molar ratio 1:1.32): Stable; Physical Stability ([2]; LD-Tyr 44%, Arg 6.8%, TRIS 13.8%, pH 8.02, molar ratio 1:1.20): Stable; Physical Stability ([2]; LD-Tyr 44%, Arg 7.33%, TRIS 14.9%, pH 8.08, molar ratio 1:1.30): Stable; Appearance, 25° C. ([2]; t = 1 days, LD-Tyr 44.0%, CD 0%, L-Arginine 21.4, NaOH 0.60, TRIS 0, pH 8.29): Stable; Appearance, Refrigerated (2-8° C.) ([2]; t = 1 days, LD-Tyr 44.0%, CD 0.75%, L-Arginine 6.27, NaOH 0, TRIS 12.69, pH 8.02): Stable; Appearance, 25° C. ([2]; t = 3 days, LD-Tyr 44.0%, CD 0.75%, L-Arginine 6.27, NaOH 0, TRIS 12.69, pH 8.02): Stable; Appearance, Refrigerated (2-8° C.) ([2]; t = 7 days, LD-Tyr 44.0%, CD 0.75%, L-Arginine 8.00, NaOH 0, TRIS 15, pH 8.15): Stable; Appearance, 25° C. [2, 7]: Stable; Appearance, Refrigerated (2-8° C.) [2, 7]: Stable; Appearance, 25° C. ([2]; t = 12 days, LD-Tyr 44.0%, CD 0.75%, L-Arginine 21.4, NaOH 0.60, TRIS 0, pH 8.29): Stable; Appearance, 25° C. ([2]; t = 14 days, LD-Tyr 44.0%, CD 0.75%, L-Arginine 8.00, NaOH 0, TRIS 15, pH 8.15): Stable; Appearance, 25° C. [2, 8]: Stable; Appearance, Refrigerated (2-8° C.) [2, 8]: Stable; Appearance, 25° C. ([2]; t = 24 days, LD-Tyr 44.0%, CD 0.75%, L-Arginine 21.86, NaOH 0.60, TRIS 0, pH 8.57): Stable; Appearance, 25° C. [2, 9]: Stable; Appearance, Refrigerated (2-8° C.) [2, 9]: Stable; Appearance, 25° C. [2, 10]: Stable; Appearance, Refrigerated (2-8° C.) [2, 10]: Stable; Appearance, 25° C. ([2]; t = 27 days, LD-Tyr 44.0%, CD 0.75%, L-Arginine 25.72, NaOH 0, TRIS 0, pH 8.43): Stable; Appearance, Refrigerated (2-8° C.) ([2]; t = 44 days, LD-Tyr 30.0%, CD 0.75%, L-Arginine 7.00, NaOH 0, TRIS 10.5, pH 8.23): precipitated; Appearance, Refrigerated (2-8° C.) ([2]; t = 50 days, LD-Tyr 30.0%, CD 0.75%, L-Arginine 18.10, NaOH 0, TRIS 0, pH 8.36): Stable; Appearance, Refrigerated (2-8° C.) ([2]; t = 56 days, LD-Tyr 44.0%, CD 0.75%, L-Arginine 21.86, NaOH 0.60, TRIS 0, pH 8.57): Stable; Appearance, 25° C. ([2]; t = 70 days, LD-Tyr 38.0%, CD 0%, L-Arginine 21.90, NaOH 0, TRIS 0, pH 8.43): Stable; Appearance, Refrigerated (2-8° C.) ([2]; t = 70 days, LD-Tyr 44.0%, CD 0.75%, L-Arginine 25.72, NaOH 0, TRIS 0, pH 8.43): Stable; Analytical stability result (HPLC), t = 0 [3]: 327.05; % retention, t = 1 week ([4]; Storage temp. 2-8° C.): 98.8%; Analytical stability result (HPLC), t = 1 week ([4]; Storage temp. 2-8° C.): 323.22; % retention, t = 2 weeks ([4]; Storage temp. 2-8° C.): 99.7%; Analytical stability result (HPLC), t = 2 weeks ([4]; Storage temp. 2-8° C.): 326.20; % retention, t = 1 week ([4]; Storage temp. 25° C.): 101.1%; Analytical stability result (HPLC), t = 1 week ([4]; Storage temp. 25° C.): 330.81; % retention, t = 2 weeks ([4]; Storage temp. 25° C.): 97.3%; Analytical stability result (HPLC), t = 2 weeks ([4]; Storage temp. 25° C.): 318.15; % retention, t = 1 week ([4]; Storage temp. 40° C.): 93.0%; Analytical stability result (HPLC), t = 1 week ([4]; Storage temp. 40° C.): 304.24; Concentration (HPLC), t = 0 [4, 11]: 364.15; Concentration (HPLC), t = 28 h at 32° C. [4, 11]: 352.22; Concentration (HPLC), t = 0 [4, 12]: 437.98; Concentration (HPLC), t = 28 h at 32° C. [4, 12]: 424.09; Concentration (HPLC), t = 0 [4, 13]: 295.42; Concentration (HPLC), t = 28 h at 32° C. [4, 13]: 291.94

Q: What does the source list for `N[C@@H](CSC[C@H](NC(=O)[C@@H](N)Cc1ccc(O)c(O)c1)C(=O)O)C(=O)O` (single isomer, unassigned; peak 2) [LD-LA2 TFA salt, Levodopa Lanthionine Peak 2 TFA Salt]?
A: mean permeability compared with the other compounds (in words) (Caco-2 cells [5]): highest mean permeability; mean permeability compared with the other compounds (in words) (Caco-2 cells [6]): highest mean permeability
